Data published in patent US20050058745A1, “Use of Labiatae herb preparations for extending the flavor shelf life of malt beverages” (priority 2003, published 2005).

Columns and labels:
[1] = DCIP redox potential of light beer during pasteurization; format: physicochemical; conditions: for preservation of redox potential during pasteurization: 20 ppm; for Redox Potential: +20 ppm
Description: Five bottles of a commercial light beer, 81 days old at the time of the experiment, but having been stored at 2° C. were used in this experiment. The following five treatments were prepared: • 1. An unpasteurized control was prepared by leaving one bottle unopened in the refrigerator until analysis. • 2. Another bottle was opened, 20 ppm carnosic acid was added from a solution made from pure material, and the bottle fobbed and crowned. This sample was also not pasteurized. • 3. A bottle was opened, fobbed to exclude air, and crowned. This sample is designated the No Addition Pasteurized Control. • 4. A bottle was opened and 20 ppm carnosic acid was added from a solution made from pure compound. The bottle was fobbed and crowned and subjected to pasteurization. • 5. A bottle was opened and 20 ppm of rosmarinic acid was added from a solution of pure compound. The bottle was fobbed and crowned and subjected to pasteurization. Treatments 3, 4, and 5 were immersed in an ambient temperature water bath and heated to 60° C. The approximate time to reach 60° C. from ambient was 12 minutes. The bottles remained at 60° C. for 12 minutes. They were then removed and cooled. All five treatments were analyzed by the DCIP-Redox method described in Example 4.

[2] = Sensory panel staling scaling of bottled standard American lager; conditions: 10 ppm (RA/CA: 5 ppm CA + 5 ppm RA)
Description: A standard American lager and a light lager were purchased commercially. The treatment bottles were opened, dosed, fobbed, crowned and inverted. The control bottles were opened, crowned and inverted. Dosing was performed as follows. One gram of pure antioxidant (corrected for actual purity) was dissolved in 100 mL ethanol and sonicated to make the antioxidant solutions of 1 weight/volume %. The volumes shown in Table 16 show the amount of the antioxidant solutions added to obtain a total of 10 ppm carnosic acid and/or rosmarinic acid in the final beverage formulations.
The sensory data were taken in the following manner. Each treatment sample was presented to the panelists one time each in two different sessions each at a different amount of aging time (5 vs. 10 days). Panelists rated the beers on a scale of 0-10, with 0 being fresh and 10 being most stale. Since the output of the panel as a whole was desired, and not any one individual panelist, the means of each treatment sample in each replicate groups were calculated and tabulated as in Table 17. Samples spiked with known amounts of off-flavors characteristic of the aged standard American lager were used as reference beers. This characterization was done in a separate descriptive session. The characteristic off-flavors in the pilot brewery beer were papery and leathery, and these were each spiked into fresh control beer at 0.75 and 1.5 times the typical flavor threshold.
Statistical analysis consisted of doing paired t-Tests on the treatment sample vs. the aged control sample (Table 18). One-tailed tests were used that probed the question whether the staling values of one treatment were lower than that of the other (e.g treatment vs. control). Confidence levels were reported along with p values.

[3] = DCIP redox potential of highly hopped beer during aging at 40° C.; format: physicochemical; parameters: DCIP Redox Value: scale not given here; conditions: for effect on DCIP redox potential: highly hopped beer aged at 40° C.
Description: Dr. […] H2SO4 brought to 100 mL in a volumetric flask. Four drops of starch indicator were added, and the DCIP was titrated with 0.01; sodium thiosulfate. The concentration of DCIP in mg/dL was measured by multiplying the mL of titer by 14.5. De-ionized water was added to adjust the final concentration to 1.45 mg/mL. 250 μL of adjusted DCIP was added to the 10 mL of degassed beer, the flask swirled to mix, and a 1 min timer started. The beer/DCIP was poured into a 1 cm cuvette and placed in the spectrophotometer. The absorbance was read at exactly 1 minute. These analyses were done in triplicate and averaged. […] The bottle dosing methods used were the same as those described in Example 1. The following samples were made: • 1. 20 ppm Carnosic Acid • 2. 20 ppm Carnosic Acid plus Air • 3. 20 ppm Rosmarinic Acid • 4. 20 ppm Rosmarinic Acid plus Air • 5. 10 ppm Carnosic Acid+10 ppm Rosmarinic Acid • 6. 10 ppm Carnosic Acid+10 ppm Rosmarinic Acid+Air • 7. […] No Additions. Treatments 1 through 8 were put in a temperature regulated room set at 40° C. and maintained at ±1° C. At intervals of Zero time, 3 days, 7 days, 14 days, and 21 days, samples were withdrawn and Redox Potentials were measured by the method outlined in example 4. Color measurements were made using the L, a, b system on a Minolta Spectrophotometer model […], chroma and hue angle color measure units were recorded. DPPH radical scavenging numbers were measured using the following method. A de-ionized-H2O/EtOH buffer solution was prepared by dissolving 250 mg sodium citrate dihydrate and 10 g of absolute ethanol in 250 mL of deionized water. The solution was then titrated with 0.1 N Citric acid (6.404 g/L anhydrous citric acid) a drop at a time to reach a pH of between 4.35 and 4.5.

[4] = DCIP redox potential of mash (first wort); format: physicochemical; conditions: for Redox: 20 ppm in mash (20 mg/kg of mash), first wort
Description: A 300 g sample of 2-row Pale Barley Malt obtained from a local brewery was ground to a “brewery grind” with a hand grinder. Fifty-gram samples of the ground malt were weighed into each of three 600 mL beakers. Tap water was boiled for 5 min to remove the chlorine and sanitize the water. When cooled, the pH of the water was adjusted from 7.86 to 5.5 with 0.1 N H2SO4. The water was then heated to 43° C. (109.4° F.) and 160 g of this adjusted water was added to each beaker. To one of the beakers was added 210 μL of a 2% solution of carnosic acid in ethanol (giving 20 mg CA/kg of mash). To another beaker was added 210 μL of a 2% solution of rosmarinic acid. One beaker received no treatment. The beakers were stirred for 10 min at 43° C. on a temperature probe controlled hot plate, with the probe in one of the beakers. After the 10 min period the beakers were placed on another temperature probe controlled hot plate set at 68° C. (154.4° F.), and the probe put in one of the mash beakers. The come up time was approximately 15 min from 43° C. to 68° C. The beakers were stirred at this temperature for 15 min. After the 15-minute mash, the beakers were removed from the hot plate and cooled in an ice bath. Each beaker's contents were strained through a paper filter. Approximately 75 mL of first wort was collected from each mash. The grain was not sparged. The °Balling of the worts was measured with a temperature-compensated refractometer (Abbe, Leica Mark II).

[5] = Trained panel flavor evaluation, highly hopped aromatic beer, forced aging; conditions: 20 ppm
Description: Separate solutions containing 2% pure rosmarinic acid or pure carnosic acid were prepared by weighing out 500 mg of each compound into separate volumetric flasks and diluting to 25 mL with 100% EtOH. The beer used in this study was the freshest material available, being coded Nov 03 […]. It was purchased at a local market. Bottle additions were done as in Example 1. The following samples were prepared: The bottles were placed in a heated room at 40±1° C. in the dark for varying amounts of time. After the allotted aging time, the bottles of beer were transferred to a dark refrigerator and stored at approximately 2to 4° C. until they were analyzed (always within 48 hours). Additional bottles from the same code were kept unopened in 2° to 4° C. storage. These unopened samples from the same beer code were labeled “Fresh Control” used to provide fresh samples for the trained panel. At the appropriate times, a trained 8-member panel evaluated the beers. […] Three beers were evaluated at each session-Fresh Control, Aged No Addition, and Aged Beer with one of the Labiatae treatments. The overall preference rank, the character and intensity of the aroma, the levels of paper/cardboard aroma and flavor, sour or off flavors, hang and astringency and bitterness quality and intensity were evaluated.

[6] = pasteurized (60° C. for 12 minutes)
[7] = 0 days at 40° C., + Air, 20 ppm (RA + CA: 10 ppm each)
[8] = 0 days at 40° C., no air, 20 ppm (CA + RA: 10 ppm each)
[9] = 3 days at 40° C., + Air, 20 ppm (RA + CA: 10 ppm each)
[10] = 3 days at 40° C., no air, 20 ppm (CA + RA: 10 ppm each)
[11] = 7 days at 40° C., + Air, 20 ppm (RA + CA: 10 ppm each)
[12] = 7 days at 40° C., no air, 20 ppm (CA + RA: 10 ppm each)
[13] = 14 days at 40° C., + Air, 20 ppm (RA + CA: 10 ppm each)
[14] = 14 days at 40° C., no air, 20 ppm (CA + RA: 10 ppm each)
[15] = 21 days at 40° C., + Air, 20 ppm (RA + CA: 10 ppm each)
[16] = 21 days at 40° C., no air, 20 ppm (CA + RA: 10 ppm each)

| Structure (SMILES) | preservation of redox potential during pasteurization [1] | Redox Potential [1, 6] | Panelist staling average, Day 5 Average (0 fresh, 10 most stale) ([2]; Aged) | Panelist staling average, Day 10 Average (0 fresh, 10 most stale) ([2]; Aged) | Panelist staling average, Day 5 Average (0 fresh, 10 most stale) ([2]; Fresh) | Panelist staling average, Day 10 Average (0 fresh, 10 most stale) ([2]; Fresh) | DCIP Redox Value [3, 7] | DCIP Redox Value [3, 8] | DCIP Redox Value [3, 9] | DCIP Redox Value [3, 10] | DCIP Redox Value [3, 11] | DCIP Redox Value [3, 12] | DCIP Redox Value [3, 13] | DCIP Redox Value [3, 14] | DCIP Redox Value [3, 15] | DCIP Redox Value [3, 16] | effect on DCIP redox potential ([3]; no air) | effect on DCIP redox potential ([3]; with added air) | Redox [4] | panelists' preference for treated sample over Aged No Addition sample ([5]; 1 week 40° C.) | also measured |
| --- | --- | --- | --- | --- | --- | --- | --- | --- | --- | --- | --- | --- | --- | --- | --- | --- | --- | --- | --- | --- | --- |
| CC(C)c1cc2c(c(O)c1O)[C@@]1(C(=O)O)CCCC(C)(C)[C@@H]1CC2 [CA, carnosic acid] | held at a higher level than the untreated, unpasteurized control | 45.0 | 3.00 | 4.375 | 2.89 | 2.25 | 93.8 | 90.6 | 89.1 | 89.1 | 68.9 | 83.5 | 62.1 | 82.3 | 62.9 | 86.9 | increases the DCIP redox potential of the starting beer | beneficial effect on aged beer that contains added air | 17.3 | 8 of 8 panelists preferred | Redox Potential ([1]; no pasteurization): 67.4; enhancing effect on redox potential of mash relative to RA ([4]; 20 ppm): less by about half the effect seen with RA |
| O=C(/C=C/c1ccc(O)c(O)c1)O[C@H](Cc1ccc(O)c(O)c1)C(=O)O [RA, rosmarinic acid] | no potential to preserve the redox potential of beer during pasteurization | 13.4 | 3.22 | 2.75 | 0.78 | 2.5 | 76.0 | 76.3 | 63.4 | 76.2 | 48.3 | 63.9 | 25.1 | 59.9 | 26.6 | 63.4 | no effect on the DCIP redox potential | not effective in preserving the DCIP redox potential | 38.8 | 7 of 8 panelists preferred | panelists' preference for treated sample over Aged No Addition sample ([5]; 3 days 40° C.): 6 of 8 panelists preferred |
